Source: patent US12643867B2, “Compositions and uses thereof” (University of Virginia Patent Foundation, priority 2017, dated 2026)

What follows are compounds tested against T1, LATS1 (Serine/threonine-protein kinase LATS1) (Homo sapiens, UniProt O95835) (assay: SILAC LC-MS ATP acyl phosphate probe competition, native kinases in HEK293T). Settings: site Lys1; ATP 1 mM; Ketanserin, Ritanserin 100 μM; RF001 1 mM.
T1 construct: Native kinases; endogenous in cells; host or cells: HEK293T soluble proteome
T1 sequence (O95835 1-1130): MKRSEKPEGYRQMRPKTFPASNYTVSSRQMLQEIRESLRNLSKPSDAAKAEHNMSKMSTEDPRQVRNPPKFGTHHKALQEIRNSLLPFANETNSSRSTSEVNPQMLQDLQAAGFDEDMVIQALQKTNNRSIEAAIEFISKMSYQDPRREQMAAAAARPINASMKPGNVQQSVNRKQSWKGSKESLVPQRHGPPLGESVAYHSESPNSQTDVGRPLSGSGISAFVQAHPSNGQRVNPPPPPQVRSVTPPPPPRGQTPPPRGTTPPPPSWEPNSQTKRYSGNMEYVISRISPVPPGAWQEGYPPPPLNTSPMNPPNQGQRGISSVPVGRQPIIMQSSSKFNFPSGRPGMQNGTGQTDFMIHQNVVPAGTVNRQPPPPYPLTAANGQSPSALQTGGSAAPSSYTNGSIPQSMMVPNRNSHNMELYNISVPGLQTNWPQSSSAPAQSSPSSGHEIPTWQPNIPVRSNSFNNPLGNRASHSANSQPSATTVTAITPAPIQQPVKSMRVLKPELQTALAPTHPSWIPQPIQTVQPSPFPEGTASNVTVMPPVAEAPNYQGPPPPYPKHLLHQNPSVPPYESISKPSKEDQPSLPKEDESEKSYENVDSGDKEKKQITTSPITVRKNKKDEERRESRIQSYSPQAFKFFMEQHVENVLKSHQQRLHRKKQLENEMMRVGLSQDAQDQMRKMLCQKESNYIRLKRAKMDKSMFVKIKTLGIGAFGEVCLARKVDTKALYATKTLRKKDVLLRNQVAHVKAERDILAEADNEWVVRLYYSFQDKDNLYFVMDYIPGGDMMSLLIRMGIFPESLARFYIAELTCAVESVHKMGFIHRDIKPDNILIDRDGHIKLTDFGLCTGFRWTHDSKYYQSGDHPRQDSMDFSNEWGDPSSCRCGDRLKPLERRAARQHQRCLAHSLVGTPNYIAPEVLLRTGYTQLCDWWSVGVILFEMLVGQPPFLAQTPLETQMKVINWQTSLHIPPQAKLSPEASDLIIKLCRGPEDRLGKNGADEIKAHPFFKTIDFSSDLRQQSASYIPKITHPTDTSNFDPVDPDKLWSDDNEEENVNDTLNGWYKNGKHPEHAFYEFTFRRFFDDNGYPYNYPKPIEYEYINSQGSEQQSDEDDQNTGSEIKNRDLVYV
Type: binding
Summary of the method: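 First, HEK293T proteomes at 2 mg/ml in kinase buffer were exposed to compound (heavy) or DMSO (light) for 30 min at 25° C. Next, samples were pooled 1:1 and trypsin/Lys-C digested. Finally, desthiobiotin peptides were enriched on avidin and measured by data-dependent LC-MS/MS.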
For `O=C(c1ccc(F)cc1)C1CCN(CCn2c(=O)[nH]c3ccccc3c2=O)CC1` [Ketanserin], the “SILAC ratio, LATS1 probe-modified peptide” value (“SILAC ratio” for short) was 1.2.
`Fc1ccc(C(=C2CCNCC2)c2ccc(F)cc2)cc1` [RF001, 4-(Bis(4-fluorophenyl)methylene) piperidine] was tested, and the “SILAC ratio” value was 1.4.
In the case of `Cc1nc2sccn2c(=O)c1CCN1CCC(=C(c2ccc(F)cc2)c2ccc(F)cc2)CC1` [Ritanserin], the “SILAC ratio” value is reported as 1.8.
